Where two headings read alike, the source gives them in different places.
Legend:
[1] = molecular target: T1, GHS-R1a receptor (HEK293 cells expressing GHS-R1a receptor) (Homo sapiens, UniProt Q92847); test: Fluorescence functional assay (ghrelin receptor), Method B2, agonist and antagonist mode; format: cell-based; settings: functional activity as an antagonist at the ghrelin receptor, Methods B2 and B3
T1 construct: host or cells: HEK293
Outline: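 Calcium flux read by ImageTrak epifluorescence in HEK293 cells stably expressing GHS-R1a, loaded 1 h at 37 °C with Calcium-3 dye; buffer HBSS/20 mM Hepes, pH 7.4, with probenecid and BSA. Agonists injected after 10 s baseline, read 50 s more; antagonists 3 min. Sigmoidal fits gave EC50 or IC50.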

[2] = molecular target: T2, human ghrelin receptor (GRLN, growth hormone secretagogue receptor, hGHS-R1a) (Homo sapiens, UniProt Q92847); test: Competitive radioligand binding assay (ghrelin receptor), Method B1
T2 construct: purchased PerkinElmer BioSignal #RBHGHSM, lot#1887; host or cells: HEK-293 cells, stably transfected (membranes)
Outline: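 Membranes incubated with compound 30 min at rt in 25 mM Hepes pH 7.4, 1 mM CaCl2, 5 mM MgCl2, 2.5 mM EDTA, 0.4% BSA, max 0.1% DMSO; filtered on PEI-soaked GF/C, washed with cold Tris, scintillation counted. Curves fitted by variable-slope non-linear regression.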

[3] = Metabolic stability in human liver microsomes, Method B8; format: in vitro ADME; settings: human liver microsomes 0.8 mg/mL, 5 μM compound, 37° C.
Outline: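 Pooled human liver microsomes (15 mixed-sex donors) at 0.8 mg/mL in 100 mM potassium phosphate, pH 7.4, with 1.5 mM NADPH and 8 mM MgCl2. Compounds tested in duplicate at a single 5 μM (0.05% DMSO), incubated at 37° C.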

[4] = Ghrelin receptor binding activity, Method B1

T1 sequence (Q92847 whole entry): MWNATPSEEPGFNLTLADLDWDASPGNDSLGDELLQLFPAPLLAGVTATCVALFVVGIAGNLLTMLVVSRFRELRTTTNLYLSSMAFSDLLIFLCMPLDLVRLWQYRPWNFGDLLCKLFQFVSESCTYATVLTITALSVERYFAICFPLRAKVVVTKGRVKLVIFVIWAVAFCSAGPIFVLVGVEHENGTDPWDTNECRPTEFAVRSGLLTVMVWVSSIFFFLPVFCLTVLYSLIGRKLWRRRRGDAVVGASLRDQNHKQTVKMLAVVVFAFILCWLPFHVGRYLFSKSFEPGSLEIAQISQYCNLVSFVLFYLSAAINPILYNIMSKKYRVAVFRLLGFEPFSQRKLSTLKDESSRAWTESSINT
T2 sequence (Q92847 whole entry): as above

Cc1cccc(C[C@H]2NC(=O)[C@H](C(C)O)N(C)C(=O)[C@H](C(C)C)NCCOc3ccccc3C[C@H](O)CNC2=O)c1 (stereo partly shown) [Compound 1453]
Antagonist Activity [1]: B (B = 1-10 nM)
IC50 [2]: 1 to 10 nM

CC(C)[C@@H]1NCCOc2ccccc2C[C@H](O)[C@@H](C)NC(=O)[C@@H](Cc2cccc(F)c2)NC(=O)[C@H](C(C)O)N(C)C1=O (stereo partly shown) [Compound 1503]
Antagonist Activity [1]: B (B = 1-10 nM)
HLM, metabolic stability in human liver microsomes [3]: 20.9 μL/min/mg protein
IC50 [2]: 1 to 10 nM

CC[C@@H]1CCc2ccc(F)cc2OCCN[C@@H](C(C)C)C(=O)N(C)[C@@H](C(C)O)C(=O)N[C@H](Cc2c[nH]c3ccccc23)C(=O)N1 (stereo partly shown) [Compound 1505]
Antagonist Activity [1]: B (B = 1-10 nM)
HLM, metabolic stability in human liver microsomes [3]: 51.5 μL/min/mg protein
IC50 [2]: 1 to 10 nM

CC(C)[C@@H]1NCCOc2ccccc2C#C[C@@H](C)NC(=O)[C@@H](Cc2ccccc2)NC(=O)[C@H](C(C)O)N(C)C1=O (stereo partly shown) [Compound 1688]
Antagonist Activity [1]: A (A <1 nM)
HLM, metabolic stability in human liver microsomes [3]: 41.4 μL/min/mg protein
IC50 [2]: 1 to 10 nM

CC(C)C1NCCOc2ccccc2C#CCNC(=O)C(Cc2c[nH]c3ccccc23)NC(=O)C(C(C)O)N(C)C1=O (stereo not shown) [Compound 1692]
Antagonist Activity [1]: C (C = 10-100 nM)
HLM, metabolic stability in human liver microsomes [3]: 121 μL/min/mg protein
IC50 [2, 4]: 1 to 10 nM

CC(C)C1NCCOc2cc(F)ccc2C#CCNC(=O)C(Cc2c[nH]c3ccccc23)NC(=O)C(C(C)O)N(C)C1=O (stereo not shown) [Compound 1693]
Antagonist Activity [1]: C (C = 10-100 nM)
HLM, metabolic stability in human liver microsomes [3]: 83.8 μL/min/mg protein
IC50 [2, 4]: 10 to 100 nM

CCC1CCc2ccc(F)cc2OCCNC(C2(C)CC2)C(=O)N(C)C(C(C)O)C(=O)NC(Cc2c[nH]c3ccccc23)C(=O)N1 (stereo not shown) [Compound 1703]
Antagonist Activity [1]: B (B = 1-10 nM)
HLM, metabolic stability in human liver microsomes [3]: 44.8 μL/min/mg protein
IC50 [2, 4]: 1 to 10 nM

CC[C@@H]1C#Cc2ccc(F)cc2O[C@H](C)CN[C@@H](C2(C)CC2)C(=O)N(C)[C@@H](C(C)O)C(=O)N[C@H](Cc2c[nH]c3ccccc23)C(=O)N1 (stereo partly shown) [Compound 1707]
Antagonist Activity [1]: B (B = 1-10 nM)
HLM, metabolic stability in human liver microsomes [3]: 27.3 μL/min/mg protein
IC50 [2, 4]: 10 to 100 nM

CC(C)[C@@H]1NCCOc2ccccc2C#CCNC(=O)[C@@H](Cc2ccccc2)NC(=O)[C@H](C(C)O)N(C)C1=O (stereo partly shown) [Compound 1712]
HLM, metabolic stability in human liver microsomes [3]: 58.2 μL/min/mg protein
IC50 [2]: 1 to 10 nM

CC(O)[C@H]1C(=O)N[C@H](Cc2c[nH]c3ccccc23)C(=O)N[C@H](C)C#Cc2ccccc2OCCN[C@@H](C2(C)CC2)C(=O)N1C (stereo partly shown) [Compound 1713]
Antagonist Activity [1]: B (B = 1-10 nM)
HLM, metabolic stability in human liver microsomes [3]: 48.8 μL/min/mg protein
IC50 [2, 4]: 1 to 10 nM

CC[C@@H]1C#Cc2ccccc2O[C@H](C)CN[C@@H](C2(C)CC2)C(=O)N(C)[C@@H](C(C)O)C(=O)N[C@H](Cc2c[nH]c3ccccc23)C(=O)N1 (stereo partly shown) [Compound 1718]
Antagonist Activity [1]: B (B = 1-10 nM)
HLM, metabolic stability in human liver microsomes [3]: 43.6 μL/min/mg protein
IC50 [2, 4]: 1 to 10 nM

CC(O)[C@H]1C(=O)N[C@H](Cc2c[nH]c3ccccc23)C(=O)N[C@H](C)CCc2ccc(F)cc2O[C@H](C)CN[C@@H](C2(C)CC2)C(=O)N1C (stereo partly shown) [Compound 1719]
Antagonist Activity [1]: C (C = 10-100 nM)
HLM, metabolic stability in human liver microsomes [3]: 23.4 μL/min/mg protein
IC50 [2, 4]: 10 to 100 nM

CC(O)[C@H]1C(=O)N[C@H](Cc2c[nH]c3ccccc23)C(=O)N[C@H](C)C#Cc2ccc(F)cc2O[C@H](C)CN[C@@H](C2(C)CC2)C(=O)N1C (stereo partly shown) [Compound 1720]
Antagonist Activity [1]: B (B = 1-10 nM)
HLM, metabolic stability in human liver microsomes [3]: 23.2 μL/min/mg protein
IC50 [2, 4]: 10 to 100 nM

CC[C@@H]1C#Cc2c(F)cccc2OCCN[C@@H](C(C)C)C(=O)N(C)[C@@H](C(C)O)C(=O)N[C@H](Cc2c[nH]c3ccccc23)C(=O)N1 (stereo partly shown) [Compound 1726]
Antagonist Activity [1]: B (B = 1-10 nM)
HLM, metabolic stability in human liver microsomes [3]: 41.5 μL/min/mg protein
IC50 [2, 4]: 10 to 100 nM

CC[C@@H]1CCc2ccc(F)cc2OCCN[C@@H](C2(C)CC2)C(=O)N(C)[C@@H](C(C)O)C(=O)N[C@H](Cc2ccccc2)C(=O)N1 (stereo partly shown) [Compound 1746]
Antagonist Activity [1]: B (B = 1-10 nM)
HLM, metabolic stability in human liver microsomes [3]: 38.6 μL/min/mg protein
IC50 [2, 4]: 1 to 10 nM

CC[C@@H]1CCc2ccc(F)cc2OCCN[C@@H](C(C)C)C(=O)N(C)[C@@H](C(C)O)C(=O)N[C@H](Cc2ccc(O)cc2)C(=O)N1 (stereo partly shown) [Compound 1751]
Antagonist Activity [1]: B (B = 1-10 nM)
HLM, metabolic stability in human liver microsomes [3]: 109.6 μL/min/mg protein
IC50 [2, 4]: 1 to 10 nM

CC[C@@H]1C#Cc2ccccc2OCCN[C@@H](C(C)C)C(=O)N(C)[C@@H](C(C)O)C(=O)N[C@H](Cc2c[nH]c3ccccc23)C(=O)N1 (stereo partly shown) [Compound 1754]
Antagonist Activity [1]: B (B = 1-10 nM)
HLM, metabolic stability in human liver microsomes [3]: 43.7 μL/min/mg protein
IC50 [2, 4]: 1 to 10 nM

CC[C@@H]1C#Cc2ccc(F)cc2OCCN[C@@H](C(C)C)C(=O)N(C)[C@@H](C(C)O)C(=O)N[C@H](Cc2c[nH]c3ccccc23)C(=O)N1 (stereo partly shown) [Compound 1755]
Antagonist Activity [1]: B (B = 1-10 nM)
HLM, metabolic stability in human liver microsomes [3]: 47.8 μL/min/mg protein
IC50 [2, 4]: 1 to 10 nM

CC(C)[C@@H]1NCC2CCc3cccc(c3O2)CCCNC(=O)[C@@H](Cc2ccccc2)NC(=O)[C@H](C(C)O)N(C)C1=O (stereo partly shown) [Compound 1777]
Antagonist Activity [1]: B (B = 1-10 nM)
HLM, metabolic stability in human liver microsomes [3]: 39.6 μL/min/mg protein
IC50 [2, 4]: 1 to 10 nM

CC(O)[C@H]1C(=O)N[C@H](Cc2ccccc2)C(=O)NCCCc2cccc3c2OC(CC3)CN[C@@H](C2CC2)C(=O)N1C (stereo partly shown) [Compound 1778]
Antagonist Activity [1]: B (B = 1-10 nM)
HLM, metabolic stability in human liver microsomes [3]: 58.1 μL/min/mg protein
IC50 [2]: 10 to 100 nM

CC[C@@H]1NCC2CCc3cccc(c3O2)CCCNC(=O)[C@@H](Cc2ccccc2)NC(=O)[C@H](C(C)O)N(C)C1=O (stereo partly shown) [Compound 1780]
Antagonist Activity [1]: B (B = 1-10 nM)
HLM, metabolic stability in human liver microsomes [3]: 25.3 μL/min/mg protein
IC50 [2]: 10 to 100 nM

CC(C)[C@@H]1NCCOc2ccccc2C2CCC(C2)NC(=O)[C@@H](Cc2c[nH]c3ccccc23)NC(=O)[C@H](C(C)O)N(C)C1=O (stereo partly shown) [Compound 1843]
Antagonist Activity [1]: A (A <1 nM)
HLM, metabolic stability in human liver microsomes [3]: 33.7 μL/min/mg protein
IC50 [2, 4]: 10 to 100 nM

CC(C)[C@@H]1NCCOc2ccccc2C2CCC(C2)NC(=O)[C@@H](Cc2ccccc2)NC(=O)[C@H](C(C)O)N(C)C1=O (stereo partly shown) [Compound 1848]
Antagonist Activity [1]: A (A <1 nM)
HLM, metabolic stability in human liver microsomes [3]: 60.7 μL/min/mg protein

CC(O)[C@H]1C(=O)N[C@H](Cc2ccccc2)C(=O)NCC#Cc2c(F)cccc2OCCN[C@@H](C2(C)CC2)C(=O)N1C (stereo partly shown) [Compound 1876]
Antagonist Activity [1]: A (A <1 nM)
HLM, metabolic stability in human liver microsomes [3]: 30.9 μL/min/mg protein
IC50 [2]: 1 to 10 nM

CC(O)[C@H]1C(=O)N[C@H](Cc2ccccc2)C(=O)NCC#Cc2ccccc2OCCN[C@@H](C2(C)CC2)C(=O)N1C (stereo partly shown) [Compound 1878]
Antagonist Activity [1]: A (A <1 nM)
HLM, metabolic stability in human liver microsomes [3]: 34.7 μL/min/mg protein
IC50 [2]: 1 to 10 nM

CC(C)[C@@H]1NCCOc2ccccc2C2CCC(C2)NC(=O)[C@@H](Cc2ccc(F)cc2)NC(=O)[C@H](C(C)O)N(C)C1=O (stereo partly shown) [Compound 1903]
Antagonist Activity [1]: A (A <1 nM)
HLM, metabolic stability in human liver microsomes [3]: 47.9 μL/min/mg protein

CC(O)[C@H]1C(=O)N[C@H](Cc2ccccc2)C(=O)NCC#Cc2ccc(F)cc2OCCN[C@@H](C2(C)CC2)C(=O)N1C (stereo partly shown) [Compound 1918]
Antagonist Activity [1]: B (B = 1-10 nM)
HLM, metabolic stability in human liver microsomes [3]: 14.3 μL/min/mg protein
IC50 [2]: 1 to 10 nM

CC(C)[C@@H]1NCCOc2cccc(F)c2C#CCNC(=O)[C@@H](Cc2ccccc2)NC(=O)[C@H](C(C)O)N(C)C1=O (stereo partly shown) [Compound 1929]
Antagonist Activity [1]: B (B = 1-10 nM)
IC50 [2]: 1 to 10 nM
